Patent US10308595B2, “Albicidin derivatives, their use and synthesis” (priority 2013, dated 2019)
Read-outs that look alike come from different tables or passages of the source.

What was measured:
Assay in all cases: Test agar plates (disc diffusion), diameter of inhibition area
Assay type in all cases: cell-based
[1] = system: Pseudomonas aeruginosa DSM1117; conditions: DSM1117, 18 h, test agar plates, active substance 1 mg/ml, more than 1 cm or more than 2 cm, read-out: diameter of inhibition, Pseudomonas aeruginosa DSM1117
Method: (§1) The dry compounds were dissolved in DMSO (1 mg/ml) and the so obtained stock solution was diluted with sterilized Millipore water 1:10 and 1:100
(§2) 20 μl of cryo stock of each strain were inoculated to 20 ml of Mueller-Hinton medium and grown overnight at 30° C. or 37° C. on a vertical shaker with 160 rpm. The inoculum for the test was adjusted by the 0.5 McFarland Standard (OD625 from 0.08 to 0.1)
Pseudomonas aeruginosa DSM1117 [gram. Neg.] Medium: MHB/37° C.
(§3) Every plate is prepared by pouring 10 ml Mueller-Hinton agar into standard petri dishes (diam 94 mm). The so obtained Mueller-Hinton plates are overlayed with 4 ml Mueller-Hinton soft agar containing 100 μl suspension of the test strain.
(§4) After the soft agar turned solid, sterile susceptibility test discs were circular placed on the agar and on every test disc 10 μl compound was added. Each concentration is tested in triplicate. The agar dishes were incubated for 18 hours at a temperature of 30° C. or 37° C. Results are obtained by measuring the diameter of inhibition area around each test disc.

Escherichia coli DH5α = conditions: 18 h, test agar plates, active substance 1 mg/ml, more than 1 cm or more than 2 cm, read-out: diameter of inhibition, Escherichia coli DH5α
Method: as §1, §2
Escherichia coli DH5α [gram. Neg.] Medium: MHB/37° C.
as §3, §4

[2] = system: Micrococcus luteus DSM1790; conditions: Micrococcus luteus, DSM1790, 18 h; test agar plates, active substance 1 mg/ml; "more than 1 cm and more than 2 cm" [sic]; read-out: diameter of inhibition, Micrococcus luteus DSM1790
Method: as §1, §2
Micrococcus luteus DSM1790 [gram. Pos.] Medium: MHB/37° C.
as §3, §4

[3] = system: Escherichia coli albi-res (Montpellier); conditions: 18 h, read-out: diameter of inhibition, Escherichia coli albi-res (Montpellier)
Method: as §1, §2
Escherichia coli albi-res (Montpellier) [gram. Neg.] Medium: MHB/37° C.
as §3, §4

Bacillus subtilis DSM10 = conditions: Bacillus subtilis, DSM10, 18 h; test agar plates, active substance 1 mg/ml; more than 1 cm or more than 3.9 cm [sic]; read-out: diameter of inhibition, Bacillus subtilis DSM10
Method: as §1, §2
Bacillus subtilis DSM10 [gram. Pos.] Medium: MHB/30° C.
as §3, §4

[4] = system: Staphylococcus aureus DSM 2569; conditions: DSM2569, 18 h, test agar plates, active substance 1 mg/ml, "more than 1 cm and more than 2 cm" [sic], read-out: diameter of inhibition, Staphylococcus aureus DSM 2569
Method: as §1, §2
Staphylococcus aureus DSM 2569 [gram. Pos.] Medium: MHB/37° C.
as §3, §4

[5] = test agar plates, active substance 1 mg/ml, more than 1 cm or more than 2 cm

Measured: zone of inhibition at 1000 µg/mL

COc1c(NC(=O)c2ccc(NC(=O)c3ccc(NC(=O)C(CC#N)NC(=O)c4ccc(NC(=O)c5cccc(-c6ccccc6)c5)cc4)cc3)c(OC)c2O)ccc(C(=O)O)c1O (stereo not drawn) [Compound 13]
> 10 mm: [1] | Escherichia coli DH5α | [2] | [3]; [5] | Bacillus subtilis DSM10

COc1c(NC(=O)c2ccc(NC(=O)c3ccc(NC(=O)C(CC#N)NC(=O)c4ccc(NC(=O)/C=C/c5ccccc5)cc4)cc3)c(OC)c2O)ccc(C(=O)O)c1O (stereo not drawn) [Compound 3]
> 10 mm: [1] | Escherichia coli DH5α | [4] | [2] | [3]; [5] | Bacillus subtilis DSM10

COc1c(NC(=O)c2ccc(NC(=O)c3ccc(NC(=O)C(CC#N)NC(=O)c4ccc(NC(=O)c5ccco5)cc4)cc3)c(OC)c2O)ccc(C(=O)O)c1O (stereo not drawn) [Compound 15]
> 10 mm: [4] | [3]; [5] | Bacillus subtilis DSM10

COc1c(NC(=O)c2ccc(NC(=O)c3ccc(NC(=O)C(CC#N)NC(=O)c4ccc(NC(=O)C(C)(C)C)cc4)cc3)c(OC)c2O)ccc(C(=O)O)c1O (stereo not drawn) [Compound 40]
> 10 mm: [3]; [5] | Bacillus subtilis DSM10

CCC(CC)C(=O)Nc1ccc(C(=O)NC(CC#N)C(=O)Nc2ccc(C(=O)Nc3ccc(C(=O)Nc4ccc(C(=O)O)c(O)c4OC)c(O)c3OC)cc2)cc1 (stereo not drawn) [Compound 39]
> 10 mm: [3]; [5] | Bacillus subtilis DSM10

COc1c(NC(=O)c2ccc(NC(=O)c3ccc(NC(=O)C(CC#N)NC(=O)c4ccc(NC(=O)c5ccc(O)cc5)cc4)cc3)c(OC)c2O)ccc(C(=O)O)c1O (stereo not drawn) [Compound 7]
> 10 mm: [1] | [4] | [3]; [5] | Bacillus subtilis DSM10

COc1ccc(S(=O)(=O)Nc2ccc(C(=O)NC(CC#N)C(=O)Nc3ccc(C(=O)Nc4ccc(C(=O)Nc5ccc(C(=O)O)c(O)c5OC)c(O)c4OC)cc3)cc2)cc1 (stereo not drawn) [Compound 49]
> 10 mm: [3]

COc1c(NC(=O)c2ccc(NC(=O)c3ccc(NC(=O)C(CC#N)NC(=O)c4ccc(NC(=O)c5ccc(-c6ccccc6)cc5)cc4)cc3)c(OC)c2O)ccc(C(=O)O)c1O (stereo not drawn) [Compound 9]
> 10 mm: Escherichia coli DH5α | [4] | [2] | [3]; [5] | Bacillus subtilis DSM10

COc1c(NC(=O)c2ccc(NC(=O)c3ccc(NC(=O)C(CC#N)NC(=O)c4ccc(NC(=O)/C(C)=C/c5ccccc5)cc4)cc3)c(OC)c2O)ccc(C(=O)O)c1O (stereo not drawn) [Compound 2]
> 10 mm: [1] | Escherichia coli DH5α | [4] | [2] | [3]; [5] | Bacillus subtilis DSM10

COc1c(NC(=O)c2ccc(NC(=O)c3ccc(NC(=O)C(CC#N)NC(=O)c4ccc(NC(=O)C5CCCC5)cc4)cc3)c(OC)c2O)ccc(C(=O)O)c1O (stereo not drawn) [Compound 41]
> 10 mm: [3]; [5] | Bacillus subtilis DSM10

COc1c(NC(=O)c2ccc(NC(=O)c3ccc(NC(=O)C(CC#N)NC(=O)c4ccc(NC(=O)CCc5ccccn5)cc4)cc3)c(OC)c2O)ccc(C(=O)O)c1O (stereo not drawn) [Compound 29]
> 10 mm: [1] | [3] | Bacillus subtilis DSM10
